The values that follow come from US10829484B2, “Compounds and methods for kinase modulation, and indications therefor” (Plexxikon Inc., priority 2015, dated 2020).

In the first assay the target is T1, BaF3-FLT3-ITD (Homo sapiens, UniProt P36888, INS600HVDFREYEYD, cells depend on it).
T1 sequence (P36888 with tags, fused parts or gaps INS600HVDFREYEYD): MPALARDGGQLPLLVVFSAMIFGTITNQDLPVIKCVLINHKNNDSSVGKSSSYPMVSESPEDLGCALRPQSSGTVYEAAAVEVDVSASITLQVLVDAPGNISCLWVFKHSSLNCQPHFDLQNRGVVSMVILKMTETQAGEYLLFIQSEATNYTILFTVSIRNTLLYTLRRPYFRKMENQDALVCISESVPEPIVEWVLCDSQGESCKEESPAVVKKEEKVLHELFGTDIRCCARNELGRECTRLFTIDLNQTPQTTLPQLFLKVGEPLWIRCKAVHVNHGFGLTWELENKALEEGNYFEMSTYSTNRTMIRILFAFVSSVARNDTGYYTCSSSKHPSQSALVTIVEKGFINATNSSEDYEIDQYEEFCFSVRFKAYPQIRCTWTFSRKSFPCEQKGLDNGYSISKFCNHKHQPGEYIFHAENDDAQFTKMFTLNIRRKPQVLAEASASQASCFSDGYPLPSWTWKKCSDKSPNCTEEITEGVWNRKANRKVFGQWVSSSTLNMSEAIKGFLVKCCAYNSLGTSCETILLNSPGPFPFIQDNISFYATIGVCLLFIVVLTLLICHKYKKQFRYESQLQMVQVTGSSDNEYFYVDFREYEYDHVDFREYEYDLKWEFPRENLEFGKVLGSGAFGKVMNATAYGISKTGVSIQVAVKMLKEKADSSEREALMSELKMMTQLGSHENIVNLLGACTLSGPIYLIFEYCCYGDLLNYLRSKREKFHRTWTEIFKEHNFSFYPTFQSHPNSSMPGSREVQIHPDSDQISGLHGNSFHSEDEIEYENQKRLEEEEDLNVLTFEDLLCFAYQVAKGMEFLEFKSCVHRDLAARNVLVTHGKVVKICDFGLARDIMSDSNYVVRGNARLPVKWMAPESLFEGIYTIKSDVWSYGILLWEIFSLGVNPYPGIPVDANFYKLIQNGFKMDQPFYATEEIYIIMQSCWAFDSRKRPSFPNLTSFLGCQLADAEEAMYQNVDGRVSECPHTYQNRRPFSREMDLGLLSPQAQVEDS
Description: CTB viability assay CS0046, BaF3-FLT3-ITD. It counts as cell-based, murine. Particulars: BaF3-FLT3-ITD cells, CellTiter Blue viability, 72 hours; read-out: Cell Assay: CS0046:BaF3-FLT3-ITD CTB:IC50. From the text: Gene constructs containing the human FLT3 sequences FLT3-ITD, FLT3-ITD-F691L, FLT3-ITD-D835V and FLT3-D835V were synthesized by reverse translation of the human protein sequences, with codons optimized for mammalian expression. Sequence of the internal tandem duplication (ITD) was based on the MV4-11 ITD sequence. Synthetic DNA constructs were cloned into the pMSCV puro retroviral vector (Clontech) and transfected into the EcoPack2-293 packaging cell line (Clontech) to generate retroviruses that contain the different FLT3 constructs. Viruses were transduced into the IL-3-dependent, murine […] cell line, Ba/F3, and selected for puromycin resistance and IL-3 independence. All cell lines were cloned by limiting dilution and clones were used for all subsequent cell assays. Overexpression of the FLT3 mutants in the Ba/F3 cells results in constitutive phosphorylation of the exogenous FLT3 protein, which is required for IL-3 independence.
Cell lines were serum starved overnight in media containing 0.5% FBS, plated at 15,000 cells/well in 96-well white-walled tissue culture plates, and 3-fold serial dilutions of test compounds of Formula I were added for 72 hours at 37° C. CellTiter Blue (CTB, Promega) was added and incubated for an additional 3 hours at 37° C. Fluorescence was read at 560 nm excitation, 590 nm emission. Wells with CTB+media only were used for background subtraction, and the fluorescence of compound-treated cells was normalized to the fluorescence of DMSO-treated cells. IC50s were determined using Igor Pro software. All compounds are assayed in duplicate cell plates.
For the compound `O=C(O)Cn1cc(Nc2ncc(-c3ccc(CC(=O)Nc4cc(C5(C(F)(F)F)CC5)on4)c(F)c3)cn2)cn1` [P-078, 2-[4-[[5-[3-fluoro-4-[2-oxo-2-[[5-[1-(trifluoromethyl)cyclopropyl]isoxazol-3-yl]amino]ethyl]phenyl]pyrimidin-2-yl]amino]pyrazol-1-yl]acetic acid], the GI50 fell in the range of 10 to 50 nM.
In the case of `Cc1nn(C)c(C)c1Nc1ncc(-c2ccc(CC(=O)Nc3cc(C4(C(F)(F)F)CC4)on3)c(F)c2)cn1` [P-029, 2-[2-fluoro-4-[2-[(l,3,5-trimethylpyrazol-4-yl)amino]pyrimidin-5-yl]phenyl]-N-[5-[1-(trifluoromethyl)cyclopropyl]isoxazol-3-yl]acetamide], the GI50 lay in the range of 10 to 50 nM.

Staying with this assay, now noted: Table 3; CellTiter Blue viability, 72 hours; read-out: Cell Assay: CS0046: BaF3-FLT3-ITD CTB: IC50.
With `Cn1cc(Nc2ncc(-c3ccc(CC(=O)Nc4cc(C5(C(F)(F)F)CC5)on4)c(F)c3)cn2)cn1`, the GI50 was 0.0861 nM.
As for `O=C(Cc1ccc(-c2cnc(Nc3ccccc3)nc2)cc1F)Nc1cc(C2(C(F)(F)F)CC2)on1`, the GI50 is 0.152 nM.

The assay is the same for the next values; noted with them: Table 4, compounds from WO 2011/022473; CellTiter Blue viability, 72 hours; read-out: Cell Assay: CS0046: BaF3-FLT3-ITD CTB: IC50.
Consider `CC(C)(C)c1cc(NC(=O)Nc2ccc(-c3cnc(NC4CCOCC4)nc3)cn2)no1` [reference compound], for which the GI50 amounted to 6.6 nM.
Still for that read-out and setting: as for `CCNc1ccc(-c2ccc(CC(=O)Nc3cc(C(C)(C)C)on3)cc2)cn1` [reference compound], the figure is 0.252 nM.
On the same count and under the same terms, under `CNc1ccc(-c2ccc(CC(=O)Nc3cc(C(C)(C)C)on3)cc2)cn1` [reference compound] stands 0.146 nM.
`CC(C)(c1cc(NC(=O)Cc2ccc(-c3ccc(NCCN4CCOCC4)nc3)cc2)no1)C(F)(F)F` [reference compound]: the GI50 worked out at 0.597 nM.
The same measure, in the same setting: as for `CC(C)(C)c1cc(NC(=O)Nc2ccc(-c3cnc(NC4CC4)nc3)cn2)no1` [reference compound], the figure is 5.91 nM.
